In US12178838B2, “Synthetic neuromodulatory peptides” (Lactocore, Inc., priority 2019, dated 2024):

Key:
Sprague Dawley rats = assay: Predator odor stress exposure and conditioned place aversion (PTSD model); format: in vivo; conditions: DOX 1 mg/kg IP
Experimental: Doxazosin (DOX, Sigma-Aldrich, St. Louis, MO, USA, 1 mg/kg, IP) was prepared in sterile saline. Previously it has been shown that DOX is effective in the treatment of some PTSD symptoms in veterans (Rodgman et al. (2016). Doxazosin XL reduces symptoms of posttraumatic stress disorder in veterans with PTSD: a pilot clinical trial. J. Clin. Psychiat., 77(5), e561-565). The two doses of FQSE (SEQ ID NO:10) (0.05 and 0.5 mg/kg, CS, Menlo Park, CA) were prepared fresh for each test day in sterile saline and administered intra-nasally 30 minutes prior to testing. Each dose was administered in a randomized order across groups. […] The same procedure with isoflurane was used to administer doxazosin however the drug was administered IP. Individuals performing behavioral tests were blind to drug treatment. […] Potential differences between groups that were not odor exposed and odor exposed groups were analyzed using One-Way ANOVA with drug dose as the primary factor. […]

[1] = system: corticosterone in rat plasma; assay: Learned helplessness model: plasma corticosterone and dexamethasone test; format: in vivo, rats
Experimental: On the first day of the test (DXMT1) at 10:00 AM, animals were injected intraperitoneally with saline, then at 04:00 PM on the same day peripheral blood samples were taken to determine the basal level of the hormone, which caused stress, and 30 minutes after taking the rat from the cage and receiving initial sample, re-taken blood to measure hormone stress level.
To study the sensitivity of the HPA system to feedback signals, rats were injected with dexamethasone (10 μg/kg, intraperitoneally) the next day (DXMT2) at 10 am. The procedure for taking blood from the tail vein was repeated after 6 and 6.5 hours. The corticosterone content was determined by enzyme-linked immunosorbent assay with reagent kits “Corticosterone-ELISA” (“Hema”, RF) in two parallel samples.
(§1) “LH”—a group of animals subjected to stress, in which a depressive state of “learned helplessness” was developed. Pharmacotherapy was not performed in the LH group; the development of experimental depression was studied. […] “LH+Map.”—the comparison drug group. Maprotiline was injected intraperitoneally at a dosage of 4.5 mg/kg ten days daily to develop experimental depression.

Wistar rats [2] = assay: Learned helplessness model: Open Field test; format: in vivo
Experimental: (§2) Weigh was measured on an analytical balance, with an accuracy of 0.0001 g, the solution was prepared with a margin of 0.5 ml.
(§3) The tetracyclic antidepressant Maprotiline (Lyudiomil), a monoamine reuptake inhibitor, was used as a positive control. Animals received a daily intraperitoneal injection (i.p) of Maprotiline for ten days (M9651, Merck, 4.5 mg/kg, dissolved in saline: 200 μl per administration).
(§4) The state of “learned helplessness” according to modern concepts adequately reflects anxiety-depressive syndrome, reproducing the main signs of a person's endogenous depression, including the severity of effects of helplessness, hopelessness, and characteristic endocrine disorders. To develop LH, rats were subjected to uncontrolled unavoidable aversive stress (electro cutaneous irritation). […] Stimulation was performed automatically using a software randomizer.
The Open Field test is a classic method for assessing the level of motor activity and exploratory behavior of rodents in new stressogenic conditions. […] On the 5th day after stressing in the LH model, the rat was placed in the center of the OF. The following parameters were measured for 5 minutes: latency to start of moving, the number of crossed squares (outside, intermediate and central), the duration of the rears and immobilization time.
as §1

Wistar rats [3] = assay: Learned helplessness model: Elevated Plus-Maze test; format: in vivo; conditions: Map 4.5 mg/kg i/p; FQSE 0.5 and 2.5 mg/kg i/n
Experimental: Weigh was measured on an analytical balance, with an accuracy of 0.0001 g, the solution was prepared with a margin of 0.5 ml. For the experiment, a freshly prepared FQSE (SEQ ID NO:10) solution was used; for the second day, this solution was stored in a refrigerator at +4° C. The tetracyclic antidepressant Maprotiline (Lyudiomil), a monoamine reuptake inhibitor, was used as a positive control. […] The classical paradigm of “learned helplessness” (LH) was used as an experimental model of depression ([…] et al. (1975). Learned helplessness in the rat. J. Comp. Physiol. […] The state of “learned helplessness” according to modern concepts adequately reflects anxiety-depressive syndrome, reproducing the main signs of a person's endogenous depression, including the severity of effects of helplessness, hopelessness, and characteristic endocrine disorders. To develop LH, rats were subjected to uncontrolled unavoidable aversive stress (electro cutaneous irritation). […] Stimulation was performed automatically using a software randomizer. […] The time spent by the animal inside and outside the closed arms (in the open arms and in the center), the number of transitions between the arms, the number of stretch-attended postures were evaluated. […]

Wistar rats [4] = assay: Learned helplessness model: Porsolt forced swimming test, one-day modification; format: in vivo; conditions: Maprotiline 4.5 mg/kg i/p; FQSE 0.5 mg/kg i/n
Experimental: as §2, §3, §4, §1

BDNF = assay: Western blot of brain homogenates after CRS: BDNF; format: in vivo, rats; conditions: fluoxetine 5 mg/kg
Experimental: (§5) To simulate a depressive state, experimental animals were placed in the individual restrainers (“Open Science”, Russia) for six hours daily for 14 days (hereinafter “chronic restraint stress=CRS”). […] The administration of drugs was carried out daily, 30 minutes before placing rats in the restrainers.
(§6) At the end of the behavioral examination, the rats were decapitated, and their brains extracted for subsequent western blot analysis. A total of 51 samples of homogenized brain tissue from Sprague-Dawley rats (3-4 months old) were received from the Customer. 25 samples were homogenates of the cerebral cortex, 26 samples were homogenates of the hippocampus isolated from rat brain. The amount of homogenized tissue in each sample was less than 50 mg. […] They were Incubated in ice for 30 minutes. Then the samples were centrifuged at 12000 g, 15 minutes, +4° C.
(§7) All the steps necessary for the analysis of protein levels of BDNF, p-p70S6k (Thr421/Ser424), p-ERK (one and two), (Thr202/Tyr204), p-GSK3β (Ser9), p-PKC (PKCG gamma Thr514) and the GAPDH reference protein were provided in the studied samples using Western blotting. […]
(§8) The integral areas of the spots obtained were calculated as a quantitative assessment and then normalized to the amount of protein in the sample.

p-GSK3β (Ser9) = assay: Western blot of brain homogenates after CRS: p-GSK3β; format: in vivo, rats; conditions: fluoxetine; FQSE
Experimental: as §5, §6, §7, §8

p-PKC (PKC gamma Thr514) = assay: Western blot of brain homogenates after CRS: p-PKC; format: in vivo, rats
Experimental: as §5, §6, §7, §8

p-ERK 2 (Tyr204) = assay: Western blot of brain homogenates after CRS: p-ERK2; format: in vivo, rats; conditions: fluoxetine 5 mg/kg; FQSE 0.3 mg/kg; against stress and control levels
Experimental: as §5, §6, §7, §8

Sprague-Dawley rats = assay: Chronic restraint stress model: Porsolt Forced Swimming test; format: in vivo; conditions: CRS, FQSE 3 mg/kg intranasal
Experimental: To simulate a depressive state, experimental animals were placed in the individual restrainers (“Open Science”, Russia) for six hours daily for 14 days (hereinafter “chronic restraint stress=CRS”). In order to study the neurotrophic effect of FQSE (SEQ ID NO:10), the animals were divided into 5 groups, 10 individuals each. The groups are as follows: Group 1, control unstressed animals, receiving 10 μl (a pair of 5 μl doses) of saline intranasally; Group 2, stressed animals, receiving 10 pI of saline intranasal (CRS+Veh); Group 3, stressed animals, receiving fluoxetine (FO) at a dose of 5 mg/kg intraperitoneal (CRS+FO, positive control); Group 4, stressed animals, receiving a peptide drug at a dose of 0.3 mg/kg in 10 pI of saline intranasal (CRS+FQSE (SEQ ID NO:10) 0.3); Group 5, stressed animals, receiving a peptide drug at a dose of 3 mg/kg in […] of saline intranasal (CRS+FQSE (SEQ ID NO:10) 3). The administration of drugs was carried out daily, 30 minutes before placing rats in the restrainers. […]
The changes in motor activity and emotional state of animals were evaluated in the Open Field (OFT) and Porsolt Forced Swimming tests (FST) fourteen days after the start of the experiment. […] For three minutes the horizontal and vertical motor activity was measured. The total number of crossed squares, as well as the length of the distance, traveled, and the number of rears was counted. […]

p-p70S6k (Thr421/Ser424) = assay: Western blot of brain homogenates after CRS: p-p70S6k; format: in vivo, rats; conditions: fluoxetine 5 mg/kg
Experimental: as §5, §6, §7, §8

COc1cc2nc(N3CCN(C(=O)C4COc5ccccc5O4)CC3)nc(N)c2cc1OC (stereo not shown) [Doxazosin]
behavior of groups not exposed to predator odor (time in randomly paired chambers) (Sprague Dawley rats; FQSE 0.05 and 0.5 mg/kg i.n.): normal behavior
predator odor-induced place aversion (Sprague Dawley rats; FQSE 0.5 mg/kg intra-nasally, vs VEH): there was not a significant difference from VEH

CNCCCC12CCC(c3ccccc31)c1ccccc12 [Maprotiline]
magnitude of suppression—Δ between the Saline and DXM in the stress level of corticosterone ([1]; LH + FQSE 0.5, LH + Map.): 248.5 nmol/L
suppression of the stress-induced increase in CS in blood after DXM ([1]; Map 4.5 mg/kg, FQSE 0.5 mg/kg): significant suppression
basal level of corticosterone (CS) in plasma ([1]; Map, FQSE in both doses (0.5, 2.5 mg/kg), vs LH group): significantly lower level of CS
vertical activity (rears) (Wistar rats [2]; FQSE 0.5 mg/kg i/n, Map 4.5 mg/kg i/p): did not differ
freezing time when placed in the center of the OF (Wistar rats [2]; FQSE 2.5 mg/kg i/n, Maprotiline 4.5 mg/kg i/p, daily, vs LH group): significant decrease
decrease in the number of animals showing immobilization after LH (Wistar rats [2]; Maprotiline 4.5 mg/kg i/p, FQSE 2.5 mg/kg i/n): 2.3 fold
appearance on the open arms (Wistar rats [3]): did not reach statistical significance
active swimming time (Wistar rats [4]): increase in active swimming time
time spent immobile (Wistar rats [4]): significant reduction

CNCCC(Oc1ccc(C(F)(F)F)cc1)c1ccccc1 (stereo not shown) [fluoxetine]
levels of BDNF protein in cerebral cortex and hippocampus (BDNF): showed no relation
p-GSK3β in the hippocampus (p-GSK3β (Ser9)): no response
levels of p-PKC (Thr 514) in the cerebral cortex (p-PKC (PKC gamma Thr514); fluoxetine 5 mg/kg, FQSE 0.3 mg/kg): showed no changes
normalization of p-PKC levels in the hippocampus (p-PKC (PKC gamma Thr514); fluoxetine, FQSE): neither fluoxetine nor peptide FQSE (SEQ ID NO:10) contributed to the normalization
cortical levels of p-ERK 2 (Tyr204) (p-ERK 2 (Tyr204)): decreased
duration of active swimming (Sprague-Dawley rats; FO 5 mg/kg intraperitoneal): no effect
time spent passive (inactive) swimming (Sprague-Dawley rats; FO 5 mg/kg, vs CRS+Veh): had no effect
levels of p-p70S6k in cerebral cortex or hippocampus (p-p70S6k (Thr421/Ser424)): showed no relation
